Experimental findings from patent US20200209247A1, “METHODS FOR IDENTIFYING MYELOMA TUMOR-INITIATING CELLS AND TARGETED THERAPY” (UNIVERSITY OF IOWA RESEARCH FOUNDATION, priority 2017, published 2020) are described below.

In this experiment the test system is RPMI-8226, RPMI-8226-R5 (a drug resistant cell line) cells. It counts as cell-based, human. Particulars: treated in vitro for 72 h; RT-PCR. Here is the method:
Drug resistance is a critical characteristic of TICs^43. To examine whether CD24^+ cells show higher resistance to chemotherapeutic drugs, the soft agar clonogenic formation assay was employed to examine the response to multiple drugs. […] The ARP1 cells from the 1st passage were collected and re-plated in methylcellulose dishes. CD24^+ and CD24^− ARP1 MM cells in the 2nd passage were treated with bortezomib (2 and 10 nM) or carfilzomib (2.5 and 12.5 nM) or melphalan (2.5 and 12.5 μM) for 2 weeks. CD24^+ ARP1 (FIGS. 5A & 5B) or OCI-MY5 (FIGS. 5C & 5D) MM cells were more pronounced resistant (>2.5-fold) than CD24^− ARP1 or OCI-MY5 MM cells. To directly confirm whether CD24^+ population are enriched upon chemotherapy, we treated RPMI-8226, RPMI-8226-R5 (a drug resistant cell line) cells with bortezmib or melphalan in vitro for 72 h (data not shown).

`CC(C)C[C@H](NC(=O)[C@H](Cc1ccccc1)NC(=O)c1cnccn1)B(O)O` [bortezomib]: the “expression of CD24 in survival cells compared to untreated MM cells” value was “upregulated”.
In the case of `N[C@@H](Cc1ccc(N(CCCl)CCCl)cc1)C(=O)O` [melphalan], the “expression of CD24 in survival cells compared to untreated MM cells” value is “upregulated”.
